Measured values: the supplement of paper PMC10307832

Legend:
Assay in all cases: relative viability (nuclei count vs DMSO), 5 days (fraction); higher = more cells survive
[1] = compound: C1CCC(CC1)N(CCNCCC2=C3C(=C(C=C2)O)NC(=O)CO3)C(=O)CCNCCC4=CC(=C(C=C4)Cl)Cl [AZ505] + CC(C)C[C@H](NC(=O)[C@H](Cc1ccccc1)NC(=O)c1cnccn1)B(O)O [Bortezomib] (partner 0.002 µM)
How it was run: (§1)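 Relative viability is defined as nuclei in treated wells over nuclei in vehicle wells. Duplicate plates were run and medians reported. Lung cancer cell lines in 1536-well plates were dosed by pin tool one day after seeding, with one drug or with a fixed anchor-drug dose plus five library-drug doses (not always all listed) in √10 steps, and nuclei were counted after 5 days.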

[2] = compound: C1CCC(CC1)N(CCNCCC2=C3C(=C(C=C2)O)NC(=O)CO3)C(=O)CCNCCC4=CC(=C(C=C4)Cl)Cl [AZ505] + C[C@]1(O)C[C@@H](c2nc(-c3ccc4ccc(-c5ccccc5)nc4c3)c3c(N)nccn32)C1 [Linsitinib] (partner 1 µM)
How it was run: as §1

[3] = compound: Cn1c(=O)n(-c2ccc(C(C)(C)C#N)cc2)c2c3cc(-c4cnc5ccccc5c4)ccc3ncc21 [Dactolisib] + CC(=O)c1c(C)c2cnc(Nc3ccc(N4CCNCC4)cn3)nc2n(C2CCCC2)c1=O [Palbociclib] (partner 0.5 µM)
How it was run: as §1

[4] = compound: Cn1c(=O)n(-c2ccc(C(C)(C)C#N)cc2)c2c3cc(-c4cnc5ccccc5c4)ccc3ncc21 [Dactolisib] + Cc1nc(Nc2ncc(C(=O)Nc3c(C)cccc3Cl)s2)cc(N2CCN(CCO)CC2)n1 [Dasatinib] (partner 0.075 µM)
How it was run: as §1

Cell Line	relative viability ([1]; first compound 0.08 µM)	relative viability ([1]; first compound 0.253 µM)	relative viability ([1]; first compound 0.8 µM)	relative viability ([1]; first compound 2.53 µM)	relative viability ([1]; first compound 8 µM)	relative viability ([2]; first compound 0.08 µM)	relative viability ([2]; first compound 0.253 µM)	relative viability ([2]; first compound 0.8 µM)	relative viability ([2]; first compound 2.53 µM)	relative viability ([2]; first compound 8 µM)	relative viability ([3]; first compound 0.002 µM)	relative viability ([3]; first compound 0.006325 µM)	relative viability ([3]; first compound 0.02 µM)	relative viability ([3]; first compound 0.06325 µM)	relative viability ([3]; first compound 0.2 µM)	relative viability ([4]; first compound 0.002 µM)	relative viability ([4]; first compound 0.006325 µM)	relative viability ([4]; first compound 0.02 µM)	relative viability ([4]; first compound 0.06325 µM)	relative viability ([4]; first compound 0.2 µM)
NCI-H1437	0.551	0.453	0.49	0.405	0.743	1.02	1.15	1.08	1.08	1.03	0.321	0.328	0.369	0.274	0.215	0.378	0.426	0.378	0.358	0.227
NCI-H1651	0.882	0.956	0.909	0.927	1.03	0.911	0.977	0.895	0.962	1.16	0.532	0.487	0.463	0.348	0.231	0.388	0.435	0.318	0.238	0.177
NCI-H1666	0.799	0.708	0.658	0.778	0.705	0.835	0.718	0.849	0.726	0.941	0.628	0.624	0.673	0.622	0.579	0.877	0.793	0.791	0.677	0.588
NCI-H1734	0.78	0.978	0.976	0.936	0.861	0.654	0.908	0.801	0.949	0.883	0.344	0.356	0.314	0.228	0.201	0.499	0.362	0.407	0.2	0.162
NCI-H1755	0.952	0.988	0.949	0.961	0.93	0.968	0.984	0.924	0.985	0.974	0.482	0.423	0.42	0.388	0.38	0.392	0.401	0.379	0.412	0.278
NCI-H1792	0.785	1.07	0.927	0.94	1	0.552	0.652	0.424	0.509	0.577	0.676	0.651	0.568	0.34	0.271	0.752	0.724	0.724	0.338	0.206
NCI-H1915	0.86	0.968	0.861	0.87	0.978	1.14	1.1	1.03	0.942	1.04	0.609	0.496	0.557	0.317	0.262	0.357	0.332	0.308	0.241	0.175
NCI-H1975	0.333	0.41	0.335	0.327	0.356	0.907	0.923	0.783	0.919	0.955	0.551	0.561	0.536	0.182	0.129	0.35	0.305	0.246	0.167	0.135
NCI-H1993	0.894	1.09	0.937	1.25	1.04	0.677	0.654	0.728	0.91	0.7	0.605	0.524	0.439	0.424	0.354	0.553	0.413	0.498	0.505	0.52
NCI-H2009	0.982	0.929	1.04	0.657	0.901	1.1	1.22	1.12	1.11	1.15	0.235	0.202	0.235	0.153	0.118	0.3	0.283	0.291	0.194	0.154
NCI-H2023	0.845	0.872	0.911	1.18	1.01	0.685	0.626	0.669	0.814	0.552	0.395	0.297	0.274	0.106	0.0901	0.487	0.454	0.376	0.0921	0.0851
NCI-H2085	0.958	1.01	0.934	1.05	1.1	0.817	0.923	0.93	0.918	0.968	0.491	0.446	0.382	0.373	0.308	0.179	0.249	0.229	0.169	0.209
NCI-H2087	0.686	0.845	0.732	0.849	0.91	0.986	0.846	0.986	0.932	0.973	0.275	0.232	0.221	0.172	0.142	0.782	0.771	0.86	0.359	0.272
NCI-H2126	1.11	1.09	1.08	1.09	1.04	0.681	0.724	0.721	0.711	0.68	0.369	0.359	0.33	0.352	0.316	0.599	0.589	0.504	0.385	0.279
NCI-H2228	0.907	1.15	0.856	0.864	0.828	0.418	0.651	0.53	0.549	0.49	0.882	0.725	0.638	0.197	0.147	0.629	0.441	0.339	0.162	0.141
NCI-H2347		0.801	0.75		0.681	0.6	0.603	0.668	0.543	0.714	0.505	0.448	0.401	0.402	0.358	0.284	0.306	0.313	0.291	0.253
